Patent US12570655B2, “Cysteine covalent modifiers of AKT1 and uses thereof” (Terremoto Biosciences, Inc., priority 2023, dated 2026)
Like-named read-outs stand apart in the source and are kept apart here.

Tests used:
Assay type in all cases: cell-based
[1] = target: T1, AKT2 (Homo sapiens, UniProt P31751); test: Live cell AKT2 target engagement by NanoBRET competitive probe displacement; conditions: HEK293 cells transfected with kinase-NanoLuciferase fusion, 2 h at 37° C.
T1 construct: expressed in transfected cells; host or cells: HEK293
Summary of the method: (§1)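 HEK293 cells transiently expressing kinase–NanoLuciferase fusions (overnight transfection) were treated with serial compound dilutions plus fluorescent ATP-competitive tracer at ~EC50 concentration for 2 h at 37 °C. BRET ratio E600/E460 measured after substrate and extracellular luciferase inhibitor addition; IC50 from log(inhibitor)–response Hill fit.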

[2] = test system: LAPC4 prostate cancer cells; test: Antiproliferative effects in LAPC4 cells (CellTiter Glo); conditions: LAPC4 cells (AKT1 E17K allele), read-out: LAPC4 proliferation IC50
Summary of the method: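 LAPC4 cells were cultured in IMDM with 12% FBS and 1% P/S, seeded at 1,000 cells/well and exposed to compound dilutions in DMSO. After 72 h, intracellular ATP was measured by CellTiter Glo luminescence, and IC50 values came from a log(inhibitor) vs. response Hill fit.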

[3] = target: T2, AKT1 WT (Homo sapiens, UniProt P31749); test: Live cell AKT1 WT target engagement by NanoBRET competitive probe displacement; conditions: HEK293 cells transfected with kinase-NanoLuciferase fusion, 2 h at 37° C.
T2 construct: expressed in transfected cells; host or cells: HEK293
Summary of the method: as §1

[4] = target: T3, AKT1 E17K (Homo sapiens, UniProt P31749, E17K); test: Live cell AKT1 E17K target engagement by NanoBRET competitive probe displacement; conditions: HEK293 cells transfected with kinase-NanoLuciferase fusion, 2 h at 37° C.
T3 construct: expressed in transfected cells; host or cells: HEK293
Summary of the method: as §1

T2 sequence (P31749 whole entry, the tested form may be a part): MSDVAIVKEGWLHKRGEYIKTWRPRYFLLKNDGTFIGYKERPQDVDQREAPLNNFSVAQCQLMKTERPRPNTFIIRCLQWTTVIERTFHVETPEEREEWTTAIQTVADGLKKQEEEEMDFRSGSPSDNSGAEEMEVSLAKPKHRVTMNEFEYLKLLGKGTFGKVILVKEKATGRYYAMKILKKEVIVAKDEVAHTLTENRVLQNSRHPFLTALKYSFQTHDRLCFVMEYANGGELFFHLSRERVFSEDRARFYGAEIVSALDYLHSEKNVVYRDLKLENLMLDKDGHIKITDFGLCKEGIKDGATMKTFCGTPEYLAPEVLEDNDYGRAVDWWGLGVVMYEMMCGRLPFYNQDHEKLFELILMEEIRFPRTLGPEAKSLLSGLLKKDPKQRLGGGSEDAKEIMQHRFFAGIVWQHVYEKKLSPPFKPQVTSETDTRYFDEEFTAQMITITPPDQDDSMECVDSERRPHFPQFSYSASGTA
T1 sequence (P31751 whole entry, the tested form may be a part): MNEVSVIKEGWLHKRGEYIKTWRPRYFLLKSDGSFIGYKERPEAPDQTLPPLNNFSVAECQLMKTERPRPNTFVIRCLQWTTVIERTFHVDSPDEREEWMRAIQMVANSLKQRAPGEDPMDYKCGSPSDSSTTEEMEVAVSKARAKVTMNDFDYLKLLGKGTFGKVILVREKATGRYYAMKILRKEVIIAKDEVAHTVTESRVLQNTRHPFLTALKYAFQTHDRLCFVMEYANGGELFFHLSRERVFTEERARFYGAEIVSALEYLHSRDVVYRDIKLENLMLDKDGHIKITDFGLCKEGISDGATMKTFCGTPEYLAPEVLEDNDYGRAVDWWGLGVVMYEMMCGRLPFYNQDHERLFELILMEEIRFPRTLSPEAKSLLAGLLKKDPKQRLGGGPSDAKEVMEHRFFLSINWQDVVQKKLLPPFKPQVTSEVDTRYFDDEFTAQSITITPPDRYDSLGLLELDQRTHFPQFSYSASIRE
T3 sequence (P31749 whole entry E17K, the tested form may be a part): as the sequence (P31749 whole entry, the tested form may be a part) above, with E17K counted along it

| IC50 [1] | IC50 ([2]; 72 h) | IC50 [3] | IC50 [4] | IC50 ([2]; Homo sapiens, LAPC4, 72 h) | SMILES |
| --- | --- | --- | --- | --- | --- |
| 136 nM | 227 nM | 555 nM | 43.3 nM |  | C=CC(=O)N1CCC(N[C@H]2CCc3cc(-n4c(-c5cccnc5N)nc5ccc(-n6nccn6)nc54)ccc32)C[C@H]1C (single isomer, unassigned) [Example 261, 1-[(2R,4*)-4-{[(1S)-5-[2-(2-aminopyridin-3-yl)-5-(1,2,3-triazol-2-yl)imidazo[4,5-b]pyridin-3-yl]-2,3-dihydro-1H-inden-1-yl]amino}-2-methylpiperidin-1-yl]prop-2-en-1-one] |
| 94.4 nM | 323 nM | 696 nM | 18.8 nM |  | C=CC(=O)N1CCC(N[C@@H]2c3ccc(-n4c(-c5cccnc5N)nc5ccc(-n6ccc(F)n6)nc54)cc3CC2F)C[C@H]1C (single isomer, unassigned) [Example 274, 1-((2R,4*)-4-(((1R,2*)-5-(2-(2-aminopyridin-3-yl)-5-(3-fluoro-1H-pyrazol-1-yl)-3H-imidazo[4,5-b]pyridin-3-yl)-2-fluoro-2,3-dihydro-1H-inden-1-yl)amino)-2-methylpiperidin-1-yl)prop-2-en-1-one] |
| 416 nM |  | 2510 nM | 72.7 nM | 1090 nM | C=CC(=O)N1CCN(N[C@@H]2CCc3cc(-n4c(-c5cccnc5N)nc5ccc(C6CC6)nc54)ccc32)CC1 [Example 350] |
| 72.3 nM |  | 186 nM | 15.7 nM | 203 nM | C=CC(=O)N1CCC(N[C@H]2CCc3cc(-n4c(-c5cccnc5N)nc5ccc(-n6ccc(C7CCCC7)n6)nc54)ccc32)CC1 [Example 306, 1-(4-{[(1S)-5-[2-(2-aminopyridin-3-yl)-5-(3-cyclopentylpyrazol-1-yl)imidazo[4,5-b]pyridin-3-yl]-2,3-dihydro-1H-inden-1-yl]amino}piperidin-1-yl)prop-2-en-1-one] |
| 36.6 nM |  | 93.4 nM | 33.2 nM | 59.1 nM | C=CC(=O)N1CCC(N[C@H]2CCc3cc(-n4c(-c5cccnc5N)nc5ccc(-n6cccn6)nc54)ccc3C2)CC1 [Example 296, 1-(4-{[(2S)-6-[2-(2-aminopyridin-3-yl)-5-(pyrazol-1-yl)imidazo[4,5-b]pyridin-3-yl]-1,2,3,4-tetrahydronaphthalen-2-yl]amino}piperidin-1-yl)prop-2-en-1-one] |
| 246 nM |  | 1190 nM | 34.9 nM | 496 nM | C=CC(=O)N1CCC(N[C@@H]2c3ccc(-n4c(-c5cccnc5N)nc5ccc(-n6ccc(C#N)n6)nc54)cc3CC2F)CC1 (single isomer, unassigned) [Example 311, 1-(3-((1R,2*)-1-((1-acryloylpiperidin-4-yl)amino)-2-fluoro-2,3-dihydro-1H-inden-5-yl)-2-(2-aminopyridin-3-yl)-3H-imidazo[4,5-b]pyridin-5-yl)-1H-pyrazole-3-carbonitrile] |
| 86 nM |  | 1590 nM | 15.2 nM | 464 nM | C=CC(=O)N1CCC(N[C@H]2CCc3cc(-n4c(-c5ccccc5)nc5ccc(-n6ccc(F)n6)nc54)ccc32)CC1 [Example 282, 1-(4-{[(1S)-5-[5-(3-fluoropyrazol-1-yl)-2-phenylimidazo[4,5-b]pyridin-3-yl]-2,3-dihydro-1H-inden-1-yl]amino}piperidin-1-yl)prop-2-en-1-one] |
| 57.3 nM | 314 nM | 294 nM | 14.2 nM |  | C=CC(=O)N1CCC(N[C@@H]2c3ccc(-n4c(-c5cccnc5N)nc5ccc(-n6ccc(C7CC7)n6)nc54)cc3CC2F)CC1 (single isomer, unassigned) [Example 298, 1-(4-(((1R,2*)-5-(2-(2-aminopyridin-3-yl)-5-(3-cyclopropyl-1H-pyrazol-1-yl)-3H-imidazo[4,5-b]pyridin-3-yl)-2-fluoro-2,3-dihydro-1H-inden-1-yl)amino)piperidin-1-yl)prop-2-en-1-one] |

More lines, now with the values behind:

| SMILES | IC50 [1] | IC50 ([2]; 72 h) | IC50 [3] | IC50 [4] | IC50 ([2]; Homo sapiens, LAPC4, 72 h) |
| --- | --- | --- | --- | --- | --- |
| C=CC(=O)N1CCC(N[C@@H]2c3ccc(-n4c(-c5cccnc5N)nc5ccc(-n6ccc(F)n6)nc54)cc3CC2F)CC1 (single isomer, unassigned) [Example 237, 1-(4-(((1R,2*)-5-(2-(2-aminopyridin-3-yl)-5-(3-fluoro-1H-pyrazol-1-yl)-3H-imidazo[4,5-b]pyridin-3-yl)-2-fluoro-2,3-dihydro-1H-inden-1-yl)amino)piperidin-1-yl)prop-2-en-1-one] | 89.5 nM | 362 nM | 542 nM | 17.7 nM |  |
| C=CC(=O)N1CCC12CCC(N[C@H]1CCc3cc(-n4c(-c5cccnc5N)nc5ccc(-n6cccn6)nc54)ccc31)CC2 (stereo partly drawn) [Example 80, 1-(7-{[(1S)-5-[2-(2-aminopyridin-3-yl)-5-(pyrazol-1-yl)imidazo[4,5-b]pyridin-3-yl]-2,3-dihydro-1H-inden-1-yl]amino}-1-azaspiro[3.5]nonan-1-yl)prop-2-en-1-one] | 166 nM |  | 15.7 nM | 41.7 nM | 120 nM |
| C=CC(=O)NC1CCC(N[C@H]2CCc3cc(-n4c(-c5cccnc5N)nc5ccc(-n6cccn6)nc54)ccc32)CC1 (single isomer, unassigned) [Example 48, N-((1*,4*)-4-(((S)-5-(2-(2-aminopyridin-3-yl)-5-(1H-pyrazol-1-yl)-3H-imidazo[4,5-b]pyridin-3-yl)-2,3-dihydro-1H-inden-1-yl)amino)cyclohexyl)acrylamide] | 1280 nM | 1400 nM | 111 nM | 799 nM |  |
| C=CC(=O)N1CCC(N[C@H]2CCc3cc(-n4c(-c5cccnc5N)nc5ccc(-n6cccn6)nc54)ccc32)C[C@H]1C (single isomer, unassigned) [Example 63, 1-((2R,4*)-4-(((S)-5-(2-(2-aminopyridin-3-yl)-5-(1H-pyrazol-1-yl)-3H-imidazo[4,5-b]pyridin-3-yl)-2,3-dihydro-1H-inden-1-yl)amino)-2-methylpiperidin-1-yl)prop-2-en-1-one] | 248 nM | 124 nM | 24.1 nM | 47.5 nM |  |
| C=CC(=O)N1CCCC(c2cn([C@H]3CCc4cc(-n5c(-c6cccnc6N)nc6ccc(-n7cccn7)nc65)ccc43)nn2)C1 (single isomer, unassigned) [Example 168, 1-((*)-3-(1-((S)-5-(2-(2-aminopyridin-3-yl)-5-(1H-pyrazol-1-yl)-3H-imidazo[4,5-b]pyridin-3-yl)-2,3-dihydro-1H-inden-1-yl)-1H-1,2,3-triazol-4-yl)piperidin-1-yl)prop-2-en-1-one] | 369 nM | 858 nM | 571 nM | 32.6 nM |  |
| C=CC(=O)N1CCC(N[C@H]2CCc3cc(-n4c(-c5cccnc5N)nc5ccc(-n6cccn6)nc54)ccc32)C(O)C1 (single isomer, unassigned) [Example 140, 1-[(3*,4*)-4-{[(1S)-5-[2-(2-aminopyridin-3-yl)-5-(pyrazol-1-yl)imidazo[4,5-b]pyridin-3-yl]-2,3-dihydro-1H-inden-1-yl]amino}-3-hydroxypiperidin-1-yl]prop-2-en-1-one] | 3580 nM | 1490 nM | 370 nM | > 1000 nM |  |
| C=CC(=O)N1CCC(N(C)[C@H]2CCc3cc(-n4c(-c5cccnc5N)nc5ccc(-n6cccn6)nc54)ccc32)CC1 [Example 67, (S)-1-(4-((5-(2-(2-aminopyridin-3-yl)-5-(1H-pyrazol-1-yl)-3H-imidazo[4,5-b]pyridin-3-yl)-2,3-dihydro-1H-inden-1-yl)(methyl)amino)piperidin-1-yl)prop-2-en-1-one] | 107 nM |  | 21.8 nM | 87.9 nM | 287 nM |
| C=CC(=O)N1CCC(N[C@H]2CCc3cc(-n4c(-c5cccnc5N)nc5ccc(-n6cccn6)nc54)ccc32)C(OC)C1 (single isomer, unassigned) [Example 118, 1-((3*,4*)-4-(((S)-5-(2-(2-aminopyridin-3-yl)-5-(1H-pyrazol-1-yl)-3H-imidazo[4,5-b]pyridin-3-yl)-2,3-dihydro-1H-inden-1-yl)amino)-3-methoxypiperidin-1-yl)prop-2-en-1-one] | 320 nM | 167 nM | 21.3 nM | 42 nM |  |
| C=CC(=O)N(C)c1ccccc1C(=O)N[C@H]1CCc2cc(-n3c(-c4cccnc4N)nc4ccc(-n5cccn5)nc43)ccc21 [Example 4, (S)-N-(5-(2-(2-aminopyridin-3-yl)-5-(1H-pyrazol-1-yl)-3H-imidazo[4,5-b]pyridin-3-yl)-2,3-dihydro-1H-inden-1-yl)-2-(N-methylacrylamido)benzamide] | 3750 nM |  | 212 nM | 823 nM | 4210 nM |
| C=CC(=O)N1CCC(N[C@H]2CCc3cc(-n4c(-c5cccnc5N)nc5ccc(-n6ccc(Cl)n6)nc54)ccc32)CC1 [Example 252, 1-(4-{[(1S)-5-[2-(2-aminopyridin-3-yl)-5-(3-chloropyrazol-1-yl)imidazo[4,5-b]pyridin-3-yl]-2,3-dihydro-1H-inden-1-yl]amino}piperidin-1-yl)prop-2-en-1-one] | 38.5 nM |  | 127 nM | 10.4 nM | 90 nM |
